Experiments:
[1] = target: D816V Kit (Homo sapiens (Human), UniProt P10721, D816V); test: Kit D816V assay at Km (Caliper electrophoretic mobility shift); assay type: biochemical; details: for IC50: D816V Kit 0.5 nM, 15 uM ATP (Km), 1 uM Srctide, 25 C, 90 minutes, read-out: INH-KITD816V ENZ-KM IC50 (nM) (Num); for times more potent against the D816V mutant than against the wild-type Kit: D816V Kit versus wild-type Kit, enzyme assays at Km
Experimental: (§1) In order to assess the activity of chemical compounds against the relevant kinase of interest, the Caliper LifeSciences electrophoretic mobility shift technology platform is used. Fluorescently labeled substrate peptide is incubated in the presence of kinase and ATP so that a […] proportion of the peptide is phosphorylated. At the end of the reaction, the mix of phosphorylated (product) and non-phosphorylated (substrate) peptides are passed through the microfluidic system of the Caliper EZ Reader 2, under an applied potential difference. The presence of the phosphate group on the product peptide provides a difference in mass and charge between those of the substrate peptide, resulting in a separation of the substrate and product pools in the sample. As the pools pass a LEDS within the instrument, these pools are detected and resolved as separate peaks. The ratio between these peaks therefore reflects the activity of the chemical matter at that concentration in that well, under those conditions.
(§2) The reaction was stopped by the addition of 70 ul of Stop buffer (100 mM HEPES pH 7.5, 0.015% Brij 35, 35 mM EDTA and 0.2% of Coating Reagent 3 (Caliper Lifesciences)). The plate was then read on a Caliper EZReader 2 (protocol settings: −1.9 psi, upstream voltage −700, downstream voltage −3000, post sample sip 35 s).

[2] = system: HMC1.2 cells; test: HMC1.2 Proliferation Assay (CellTiter-Glo); details: 72 h, read-out: HMC1.2 Proliferation IC50
Experimental: 1000 HMC1.2 cells were incubated in 22 ul culture media (IMDM, 10% calf serum with Iron) in each well of a 384-well plate overnight in a tissue culture incubator (5% CO2, 37° C.). […] After 3 days incubation in tissue culture incubator, 25 ul CellTiter-Glo (Promega) solution was added to each well for ATP/cell viability measurement.
In addition, these compounds were assayed for their ability to inhibit the dependence of these cells on Kit kinase activity by disrupting their growth and proliferation.

[3] = target: Kit D816V kinase activity (Kit autophosphorylation at tyrosine 719) (Homo sapiens (Human), UniProt P10721, D816V/V560G); test: HMC1.2 Autophosphorylation Assay (AlphaLISA phospho-Y719 c-Kit)
Chain of Kit D816V kinase activity (Kit autophosphorylation at tyrosine 719) (P10721 26-976 V560G/D816V): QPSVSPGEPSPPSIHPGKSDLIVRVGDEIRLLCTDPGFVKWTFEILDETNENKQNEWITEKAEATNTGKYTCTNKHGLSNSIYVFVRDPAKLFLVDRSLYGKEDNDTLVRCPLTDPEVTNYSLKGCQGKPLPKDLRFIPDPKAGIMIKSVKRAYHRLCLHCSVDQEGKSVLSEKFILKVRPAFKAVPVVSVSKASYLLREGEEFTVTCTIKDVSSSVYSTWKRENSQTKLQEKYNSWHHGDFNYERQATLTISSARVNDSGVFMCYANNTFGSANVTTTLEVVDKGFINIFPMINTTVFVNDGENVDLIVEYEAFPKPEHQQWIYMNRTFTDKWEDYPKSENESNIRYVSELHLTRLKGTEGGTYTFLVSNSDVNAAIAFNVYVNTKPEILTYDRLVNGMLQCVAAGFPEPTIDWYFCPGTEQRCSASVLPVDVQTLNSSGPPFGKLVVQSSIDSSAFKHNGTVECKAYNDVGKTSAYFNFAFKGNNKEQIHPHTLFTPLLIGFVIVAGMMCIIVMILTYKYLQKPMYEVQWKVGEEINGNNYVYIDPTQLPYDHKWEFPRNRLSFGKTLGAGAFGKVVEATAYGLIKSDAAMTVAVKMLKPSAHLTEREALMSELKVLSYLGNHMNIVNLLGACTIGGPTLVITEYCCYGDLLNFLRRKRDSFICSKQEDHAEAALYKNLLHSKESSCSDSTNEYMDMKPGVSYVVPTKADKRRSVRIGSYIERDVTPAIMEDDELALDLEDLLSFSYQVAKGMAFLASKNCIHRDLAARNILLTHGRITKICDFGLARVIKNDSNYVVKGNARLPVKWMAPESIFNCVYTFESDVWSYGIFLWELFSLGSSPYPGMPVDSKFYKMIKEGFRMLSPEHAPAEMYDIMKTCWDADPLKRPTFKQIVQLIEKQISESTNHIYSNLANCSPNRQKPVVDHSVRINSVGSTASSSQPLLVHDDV
Experimental: 10,000 HMC1.2 cells were incubated in 22 ul culture media (phenol-red free IMDM, no serum) in each well of a 384-well plate and serum starved overnight in a tissue culture incubator (5% CO2, 37° C.). […] After 90 minutes, 6 ul of 5× AlphaLISA Lysis Buffer (Perkin Elmer) supplemented with a protease and phosphatase inhibitor cocktail (Cell Signaling Technologies) was added to each well and shaken at 450 rpm for 15 minutes at 4° C. […] 10 ul of 100 ug/ml streptavidin donor beads (Perkin Elmer) were added to each well, blocked from light with aluminum adhesive and shaken at 300 rpm at room temperature for 2 hours. Fluorescence signal was obtained on Envision (Perkin Elmer) by AlphaScreen 384 well HTS protocol.

[4] = target: wild type Kit (Homo sapiens (Human), UniProt P10721); test: Kit wild type assay at Km (Caliper electrophoretic mobility shift); assay type: biochemical; details: wild type Kit 2 nM, 400 uM ATP (Km), 1 uM Srctide, 25 C, 90 minutes; read-out: INH-KITWT ENZ-KM IC50 (nM) (Num)
Chain of wild type Kit (P10721 26-976): as the sequence (P10721 26-976 V560G/D816V) above, with G535V, V791D counted along it
Experimental: as §1, §2

Chain of D816V Kit (P10721 26-976 D816V): as the sequence (P10721 26-976 V560G/D816V) above, with G535V counted along it

COc1cc2ncnc(N3CCN(c4ncc(Cc5ccccc5)cn4)CC3)c2cc1OCC1CNCCO1 (centres unmarked) [Compound 105]
IC50 [1]: < 1 nM | IC50 [2]: 100 to 1000 nM | IC50 [3]: 10 to 100 nM | IC50 [4]: 11 to 100 nM

COc1cc2c(N3CCN(c4ncc(Br)cn4)CC3)ncnc2cc1OCCCN1CCCC1 [Compound 107]
IC50 [1]: 10 to 100 nM | IC50 [2]: 1000 to 10000 nM | IC50 [4]: 100 to 1000 nM

COc1cc2ncnc(N3CCN(c4ncc(Cc5ccccc5)c(=O)[nH]4)CC3)c2cc1OCC1CNCCO1 (centres unmarked) [Compound 119]
IC50 [1]: < 1 nM | IC50 [2]: > 10000 nM | IC50 [3]: 1000 to 10000 nM | IC50 [4]: < 10 nM

COc1cc2c(N3CCN(c4ncc(Cc5ccccc5)cn4)CC3)ncnc2cc1OCCCN1CCCCC1 [Compound 123]
IC50 [1]: 10 to 100 nM | IC50 [2]: 1000 to 10000 nM | IC50 [3]: 1000 to 10000 nM | IC50 [4]: 100 to 1000 nM

COc1cc2ncnc(N3CCN(c4ncc(Cc5ccccc5)c(N)n4)CC3)c2cc1OCC1CCN(C)CC1 [Compound 125]
IC50 [1]: < 1 nM | IC50 [2]: 100 to 1000 nM | IC50 [3]: < 10 nM | IC50 [4]: < 10 nM

COc1cc2ncnc(N3CCN(c4ncc(Cc5ccc(C)cc5)cn4)C(=O)C3)c2cc1OC [Compound 22]
IC50 [1]: 1.01 to 10 nM | IC50 [2]: 1000 to 10000 nM | IC50 [4]: 11 to 100 nM

COc1cc2ncnc(N3CCN(c4ncc(Nc5ccccc5)cn4)CC3)c2cc1OC [Compound 13, 2-(4-(6,7-dimethoxyquinazolin-4-yl)piperazin-1-yl)-N-phenylpyrimidin-5-amine]
IC50 [1]: 1.01 to 10 nM | IC50 [2]: 1000 to 10000 nM | IC50 [3]: 100 to 1000 nM | IC50 [4]: 100 to 1000 nM

COc1cc2c(N3CCN(c4ncc(Cc5ccccc5)cn4)CC3)ncnc2cc1OCC(O)CO (centres unmarked) [Compound 85]
IC50 [1]: 1.01 to 10 nM | IC50 [2]: 1000 to 10000 nM | IC50 [3]: 100 to 1000 nM | IC50 [4]: 11 to 100 nM

COc1cc2ncnc(N3CCN(c4ncc(Cc5ccccc5)cn4)CC3)c2cc1OCC1CCNCC1 [Compound 98]
IC50 [1]: < 1 nM | IC50 [2]: 1000 to 10000 nM | IC50 [3]: 10 to 100 nM | IC50 [4]: 11 to 100 nM

COc1cc2ncnc(N3CCN(c4ncc(Cc5ccccc5)cn4)CC3)c2cc1OCC1CCN(C)CC1 [Compound 112]
IC50 [1]: < 1 nM | IC50 [2]: 1000 to 10000 nM | IC50 [3]: 10 to 100 nM | IC50 [4]: 11 to 100 nM

COc1cc2ncnc(N3CCN(c4ncc(Cc5ccccc5)c(O)n4)CC3)c2cc1OC [Compound 35]
IC50 [1]: < 1 nM | IC50 [2]: 100 to 1000 nM | IC50 [3]: 100 to 1000 nM | IC50 [4]: < 10 nM

COc1cc2ncnc(N3CCN(c4ncc(Cc5ccccc5)cn4)CC3)c2cc1OC1CCN(C)CC1 [Compound 99]
IC50 [1]: 1.01 to 10 nM | IC50 [2]: 1000 to 10000 nM | IC50 [3]: 100 to 1000 nM | IC50 [4]: 11 to 100 nM

COc1cc2ncnc(N3CCN(c4ncc(Cc5ccccc5)cn4)CC3)c2cc1OCC1CCNC(=O)C1 (centres unmarked) [Compound 109]
IC50 [1]: < 1 nM | IC50 [2]: 1000 to 10000 nM | IC50 [3]: 10 to 100 nM | IC50 [4]: 11 to 100 nM

COc1cc2ncnc(N3CCN(c4ncc(Cc5ccccc5)cn4)CC3)c2cc1OCCCN1CCN(C)CC1 [Compound 136]
IC50 [1]: < 1 nM | IC50 [2]: 1000 to 10000 nM | IC50 [3]: 100 to 1000 nM | IC50 [4]: 11 to 100 nM

COc1cc2ncnc(N3CCN(c4ncc(Nc5ccc(F)cc5)cn4)CC3)c2cc1OC [Compound 42]
IC50 [1]: 1.01 to 10 nM | IC50 [2]: 1000 to 10000 nM | IC50 [4]: 100 to 1000 nM

COc1cc2c(N3CCN(c4ncc(Cc5ccccc5)cn4)CC3)ncnc2cc1OCCN1CCCC1=O [Compound 111]
IC50 [1]: < 1 nM | IC50 [2]: 1000 to 10000 nM | IC50 [3]: 100 to 1000 nM | IC50 [4]: 11 to 100 nM

COc1cc2ncnc(N3CCN(c4ncc(Cc5ccc(C(F)(F)F)cc5)cn4)CC3)c2cc1OC [Compound 88]
IC50 [1]: 10 to 100 nM | IC50 [2]: > 10000 nM | IC50 [4]: 100 to 1000 nM

COc1cc2ncnc(N3CCN(c4ncc(Nc5ccccc5)cn4)[C@H](C)C3)c2cc1OC [Compound 30]
IC50 [1]: 1.01 to 10 nM | IC50 [2]: 1000 to 10000 nM | IC50 [4]: 100 to 1000 nM

COc1cc2ncnc(N3CCN(c4ncc(COc5ccccc5)cn4)CC3)c2cc1OC [Compound 36]
IC50 [1]: 1.01 to 10 nM | IC50 [2]: 1000 to 10000 nM | IC50 [3]: 100 to 1000 nM | IC50 [4]: 11 to 100 nM

COc1cc2c(N3CCN(c4ncc(Nc5ccc(C)cc5)cn4)CC3)ncnc2cc1OCCCN1CCCCC1 [Compound 137]
IC50 [1]: 1.01 to 10 nM | IC50 [2]: 1000 to 10000 nM | IC50 [3]: 100 to 1000 nM | IC50 [4]: 11 to 100 nM

c1ccc(Cc2cnc(N3CCN(c4ncnc5[nH]cnc45)CC3)nc2)cc1 [Compound 1]
IC50 [1]: 10 to 100 nM | times more potent against the D816V mutant than against the wild-type Kit [1]: at least 100 times | IC50 [2]: 1000 to 10000 nM | IC50 [3]: > 10000 nM | IC50 [4]: > 1000 nM

COc1cc2ncnc(N3CCN(c4ncc(Cc5ccccc5)cn4)C(C)C3)c2cc1OC (centres unmarked) [Compound 23]
IC50 [1]: 1.01 to 10 nM | times more potent against the D816V mutant than against the wild-type Kit [1]: less than 5 times | IC50 [2]: 1000 to 10000 nM | IC50 [3]: 100 to 1000 nM | IC50 [4]: 11 to 100 nM

COc1cc2ncnc(N3CCN(c4ncc(Cc5ccccc5)cn4)CC3)c2cc1OCC(O)CO (centres unmarked) [Compound 84]
IC50 [1]: 1.01 to 10 nM | IC50 [2]: 1000 to 10000 nM | IC50 [3]: 100 to 1000 nM | IC50 [4]: 11 to 100 nM

COc1ccc2ncnc(N3CCN(c4ncc(Cc5ccccc5)cn4)[C@H](C)C3)c2c1 [Compound 7]
IC50 [1]: 10 to 100 nM | IC50 [2]: 1000 to 10000 nM | IC50 [4]: 100 to 1000 nM

COc1ccc2ncnc(N3CCN(c4ncc(Cc5ccccc5)cn4)CC3)c2c1 [Compound 5]
IC50 [1]: 10 to 100 nM | IC50 [2]: 1000 to 10000 nM | IC50 [4]: 100 to 1000 nM

COc1cc2ncnc(N3CCN(c4ncc(Cc5ccccc5)cn4)CC3)c2cc1OCC1CN(C)CCO1 (centres unmarked) [Compound 117]
IC50 [1]: < 1 nM | IC50 [4]: 11 to 100 nM

COc1cc2ncnc(N3CCN(c4ncc(Cc5ccccc5)cn4)CC3)c2cc1OC[C@@H]1CCCN(C)C1 [Compound 113]
IC50 [1]: < 1 nM | IC50 [4]: 11 to 100 nM

COc1cc2ncnc(N3CCN(c4ncc(OCc5ccccc5)cn4)C[C@H]3C)c2cc1OC [Compound 67]
IC50 [1]: > 100 nM | times more potent against the D816V mutant than against the wild-type Kit [1]: less than 5 times | IC50 [4]: > 1000 nM

COc1cc2ncnc(N3CCN(c4ncc(Cc5cccc(F)c5)cn4)CC3)c2cc1OC [Compound 39]
IC50 [1]: 1.01 to 10 nM | IC50 [4]: 100 to 1000 nM

COc1cc2c(N3CCN(c4ncc(Cc5ccccc5)cn4)CC3)ncnc2cc1OCCCN1CCN(C)CC1 [Compound 134]
IC50 [1]: < 1 nM | IC50 [2]: 100 to 1000 nM | IC50 [3]: 10 to 100 nM | IC50 [4]: < 10 nM

COc1cc2ncnc(N3CCN(c4ncc(Cc5ccccc5)cn4)CC3)c2cc1OCC1CNC1 [Compound 79]
IC50 [1]: 1.01 to 10 nM | IC50 [2]: 1000 to 10000 nM | IC50 [3]: 10 to 100 nM | IC50 [4]: 11 to 100 nM

COc1cc2ncnc(N3CCN(c4ncc(N5CCCc6ccccc65)cn4)CC3)c2cc1OC [Compound 74]
IC50 [1]: 10 to 100 nM | IC50 [4]: 100 to 1000 nM

COc1cc2ncnc(N3CCN(c4ncc(Cc5cccc(C#N)c5)cn4)CC3)c2cc1OC [Compound 46]
IC50 [1]: 10 to 100 nM | IC50 [4]: 100 to 1000 nM

COc1cc2ncnc(N3CCN(c4ncc(NC(C)c5ccccc5)cn4)CC3)c2cc1OC (centres unmarked) [Compound 56]
IC50 [1]: 10 to 100 nM | IC50 [4]: > 1000 nM

COc1cc2ncnc(N3CCN(c4ncc(Cc5ccccc5C)cn4)CC3)c2cc1OC [Compound 25]
IC50 [1]: 10 to 100 nM | IC50 [4]: 100 to 1000 nM

COc1cc2ncnc(N3CCN(c4ncc(Cc5ccccc5)cn4)CC3)c2cc1OC1CCN(CCO)C1 (centres unmarked) [Compound 118]
IC50 [1]: 1.01 to 10 nM | IC50 [4]: 11 to 100 nM

COc1cc2ncnc(N3CCN(c4ncc(C(=O)Nc5ccccc5)cn4)CC3)c2cc1OC [Compound 51]
IC50 [1]: 10 to 100 nM | IC50 [4]: > 1000 nM

COc1cc2ncnc(N3CCN(c4ncc(Nc5ccc(C#N)cc5)cn4)CC3)c2cc1OC [Compound 47]
IC50 [1]: 10 to 100 nM | times more potent against the D816V mutant than against the wild-type Kit [1]: at least 100 times | IC50 [4]: > 1000 nM

COc1cc2ncnc(N3CCN(c4ncc(OCC5CC5)cn4)CC3)c2cc1OC [Compound 6]
IC50 [1]: > 100 nM | IC50 [4]: > 1000 nM

COc1cc2ncnc(N3CCN(c4ncc(OCc5ccsc5)cn4)CC3)c2cc1OC [Compound 44]
IC50 [1]: 10 to 100 nM | IC50 [4]: 100 to 1000 nM

Source: patent US9994552B2, “Compositions useful for treating disorders related to kit” (BLUEPRINT MEDICINES CORPORATION, priority 2013, dated 2018)
